Holding throughout (details): exposure: 6-8 hpf to 5 dpf, scored at 6 dpf
For assay [1], the system named is Danio rerio embryo/larva. The assay can be described thus: BMC any abnormality; max tested concentration (log10 uM): 2; higher = less potent. As for the experimental part:
(§1)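 Zebrafish embryos (with chorion) were exposed from 6-8 hpf to each PFAS (8-point half-log series, top concentration up to 100 uM, 0.4% DMSO, sealed plates, 26 C; n = 6 embryos per concentration), rinsed at 5 dpf and scored at 6 dpf by two blinded observers for mortality, hatching and malformations. Endpoint scores are the % of living larvae affected (dead larvae excluded; […]). Curves were fitted with tcpl (cutoff 16%), and the BMC is the concentration at a benchmark response of 21.6%.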

Assay [2] concerns Danio rerio embryo/larva. The assay is described as follows: BMC edema; higher = less potent. As for the experimental part: as §1
Assay [3] relates to Danio rerio embryo/larva. The assay can be described thus: BMC swim bladder non-inflation; higher = less potent. Here is the method: as §1
For assay [4], the system named is Danio rerio embryo/larva. The assay can be described thus: max % larvae unhatched across tested concentrations; max tested concentration (log10 uM): 2; higher = more toxic.
In assay [5] the test system is Danio rerio embryo/larva. The assay can be described thus: max % larvae with any abnormality across tested concentrations; max tested concentration (log10 uM): 2; higher = more toxic; extreme values may be limits of the assay.
Assay [6] relates to Danio rerio embryo/larva. The assay is described as follows: BMC abnormal position; higher = less potent. As for the experimental part:
as §1

Assay [7] deals with Danio rerio embryo/larva. The assay is described as follows: BMC craniofacial defects; higher = less potent. As for the experimental part: as §1
In assay [8] the test system is Danio rerio embryo/larva. The assay is described as follows: max % larvae dead across tested concentrations; max tested concentration (log10 uM): 2; higher = more toxic; extreme values may be limits of the assay.
Assay [9] has as its system Danio rerio embryo/larva. The assay can be described thus: BMC mortality; max tested concentration (log10 uM): 2; higher = less potent. Here is the method:
as §1

Assay [10] relates to Danio rerio embryo/larva. The assay is described as follows: max % larvae unhatched across tested concentrations; max tested concentration (log10 uM): 1.60206; higher = more toxic.
The subject of assay [11] is Danio rerio embryo/larva. The assay can be described thus: max % larvae dead across tested concentrations; max tested concentration (log10 uM): 1.60206; higher = more toxic; extreme values may be limits of the assay.
The subject of assay [12] is Danio rerio embryo/larva. The assay is described as follows: max % larvae with any abnormality across tested concentrations; max tested concentration (log10 uM): 1.60206; higher = more toxic; extreme values may be limits of the assay.
Setting [13] is: max tested concentration (log10 uM): 2.
[14] abbreviates: max tested concentration (log10 uM): 1.
[15] abbreviates: max tested concentration (log10 uM): 0.477121.
The mark [16] stands for this setting: max tested concentration (log10 uM): 1.47712.

Regarding `O=S(=O)(O)C(F)(F)C(F)(F)C(F)(F)C(F)(F)C(F)(F)C(F)(F)F` [Perfluorohexanesulfonic acid], in assay [1], the BMC any abnormality is 30.2 µM. The molecule further had a BMC edema in assay [2] (setting [13]) of 31.7 µM. Also, in assay [3] (setting [13]), the “BMC swim bladder non-inflation” value amounted to 34.1 µM. In addition, in [4], the “max % larvae unhatched across tested concentrations” value was determined as 0%. In addition, the max % larvae in [5] is 100%. The molecule further returned a BMC abnormal position in assay [6] (setting [13]) of 90.6 µM. The same molecule yielded a BMC craniofacial defects in assay [7] (setting [13]) of 78.9 µM.

`O=C(O)CCC(F)(F)C(F)(F)C(F)(F)C(F)(F)C(F)(F)C(F)(F)F` [3-(Perfluorohexyl)propanoic acid] came in with a BMC any abnormality in assay [1] of 8.2 µM. Moreover, the “max % larvae dead across tested concentrations” value in assay [8] turned out to be 100%. The molecule also gave a BMC mortality in [9] of 19.5 µM. Moreover, in assay [2] (setting [14]), the BMC edema came to 9.01 µM. For the same molecule, in assay [4], the “max % larvae unhatched across tested concentrations” value was determined as 0%. The molecule further came in with a max % larvae in [5] of 100%.

With `OCC(F)(F)C(F)(F)C(F)(F)C(F)(F)C(F)(F)C(F)(F)CO` [1H,1H,8H,8H-Perfluorooctane-1,8-diol], in assay [1], the BMC any abnormality was determined as 41.3 µM. The “max % larvae dead across tested concentrations” value in assay [8] was 0%. The molecule also registered a BMC edema in [2] (setting [13]) of 50.7 µM. In addition, the “BMC swim bladder non-inflation” value in assay [3] (setting [13]) came out at 10.4 µM. Moreover, in [4], the “max % larvae unhatched across tested concentrations” value was 0%. Also, the max % larvae in assay [5] is 91.7%. The molecule also registered a BMC craniofacial defects in assay [7] (setting [13]) of 91 µM.

For `FC(F)(I)C(F)(F)C(F)(F)C(F)(F)I` [Perfluoro-1,4-diiodobutane], in assay [1], the BMC any abnormality worked out at 14.8 µM. The “max % larvae dead across tested concentrations” value in [8] was found to be 16.7%. Moreover, the BMC edema in assay [2] (setting [13]) stood at 20.6 µM. Besides, the “BMC swim bladder non-inflation” value in assay [3] (setting [13]) stood at 25.6 µM. In assay [4], the “max % larvae unhatched across tested concentrations” value was found to be 0%. For the same molecule, the max % larvae in assay [5] was found to be 70.8%. The molecule also had a BMC craniofacial defects in [7] (setting [13]) of 74.2 µM.

In assay [1], `OC(C(F)(F)F)(C(F)(F)F)C(O)(C(F)(F)F)C(F)(F)F` [Perfluoropinacol] returned a BMC any abnormality of 1.94 µM. This molecule came in with a BMC edema in assay [2] (setting [15]) of 2.52 µM. For the same molecule, the “BMC swim bladder non-inflation” value in assay [3] (setting [15]) was 2.28 µM. Further, the “max % larvae unhatched across tested concentrations” value in assay [4] came to 0%. Besides, the max % larvae in [5] turned out to be 100%. The BMC craniofacial defects in assay [7] (setting [15]) was found to be 2.47 µM.

`O=C(O)C(F)(F)C(F)(F)C(F)(F)C(F)(F)C(F)(F)C(F)(F)C(F)(F)C(F)(F)C(F)(F)F` [Perfluorodecanoic acid]: the BMC any abnormality in assay [1] was determined as 9.34 µM. For the same molecule, in assay [8], the “max % larvae dead across tested concentrations” value worked out at 100%. This molecule came in with a BMC mortality in [9] of 11.2 µM. Moreover, the “BMC swim bladder non-inflation” value in [3] (setting [16]) came out at 10.1 µM. Besides, in assay [4], the “max % larvae unhatched across tested concentrations” value was found to be 0%. The molecule also registered a max % larvae in assay [5] of 100%.

Take `O=C(O)C(F)(F)C(F)(F)C(F)(F)C(F)(F)C(F)(F)C(F)(F)C(F)(F)C(F)(F)Cl` [9-Chloro-perfluorononanoic acid]: the BMC any abnormality in [1] was found to be 8.75 µM. Also, the “max % larvae dead across tested concentrations” value in assay [8] was determined as 100%. Further, the BMC mortality in assay [9] came to 31.1 µM. In assay [2] (setting [13]), this molecule yielded a BMC edema of 17.5 µM. The “BMC swim bladder non-inflation” value in [3] (setting [13]) was found to be 6.38 µM. The “max % larvae unhatched across tested concentrations” value in [4] came to 0%. Further, the max % larvae in assay [5] was found to be 100%. The BMC abnormal position in assay [6] (setting [13]) amounted to 80.3 µM. For the same molecule, the BMC craniofacial defects in assay [7] (setting [13]) worked out at 31.1 µM.

As for `CCCCCCCCC(F)(F)C(F)(F)C(F)(F)C(F)(F)C(F)(F)C(F)(F)F` [1-(Perfluorohexyl)octane], the “max % larvae unhatched across tested concentrations” value in assay [10] came out at 0%. Further, the “max % larvae dead across tested concentrations” value in [11] is 0%. The molecule also yielded a max % larvae in assay [12] of 0%.

Take `FC(F)(F)C(F)(F)C(F)(F)C(F)(F)C(F)(F)C(F)(F)CCS` [2-(Perfluorohexyl)ethanethiol]: the “max % larvae unhatched across tested concentrations” value in assay [10] was 0%. Also, the “max % larvae dead across tested concentrations” value in assay [11] worked out at 0%. In assay [12], this molecule displayed a max % larvae of 16.7%.

Turning to `CCNS(=O)(=O)C(F)(F)C(F)(F)C(F)(F)C(F)(F)C(F)(F)C(F)(F)C(F)(F)C(F)(F)F` [N-Ethylperfluorooctane sulfonamide], the BMC any abnormality in [1] worked out at 2.37 µM. The “max % larvae dead across tested concentrations” value in [8] was 100%. Also, the BMC mortality in assay [9] was determined as 19.5 µM. In assay [2] (setting [14]), this molecule returned a BMC edema of 2.88 µM. Also, the “BMC swim bladder non-inflation” value in [3] (setting [14]) was found to be 3.13 µM. In addition, the “max % larvae unhatched across tested concentrations” value in assay [4] was 0%. In assay [5], this molecule yielded a max % larvae of 100%.

In the case of `O=C(O)CCC(F)(F)C(F)(F)C(F)(F)C(F)(F)C(F)(F)F` [2H,2H,3H,3H-Perfluorooctanoic acid], the BMC any abnormality in assay [1] turned out to be 8.77 µM. The “max % larvae dead across tested concentrations” value in assay [8] was 100%. Further, in assay [9], the BMC mortality was determined as 24.8 µM. The molecule also gave a BMC edema in assay [2] (setting [16]) of 9.38 µM. For the same molecule, the “BMC swim bladder non-inflation” value in [3] (setting [16]) is 9.28 µM. Besides, the “max % larvae unhatched across tested concentrations” value in [4] stood at 0%. The molecule further gave a max % larvae in assay [5] of 100%. For the same molecule, in [6] (setting [16]), the BMC abnormal position amounted to 12.2 µM.

`C=CC(=O)OCC(F)(F)C(F)(F)C(F)(F)C(F)(F)COC(=O)C=C` [1H,1H,6H,6H-Perfluorohexane-1,6-diol diacrylate] displayed a BMC any abnormality in assay [1] of 1.52 µM. Further, in assay [8], the “max % larvae dead across tested concentrations” value was 100%. Moreover, the BMC mortality in assay [9] was found to be 8.28 µM. The BMC edema in assay [2] (setting [14]) amounted to 8.94 µM. The “BMC swim bladder non-inflation” value in [3] (setting [14]) came to 2.81 µM. Besides, the “max % larvae unhatched across tested concentrations” value in assay [4] was 0%. In assay [5], this molecule registered a max % larvae of 100%.

`O=C(CC(=O)C(F)(F)C(F)(F)C(F)(F)F)c1cccs1` [(Perfluorobutyryl)-2-thenoylmethane] registered a BMC any abnormality in [1] of 3.11 µM. Moreover, the “max % larvae dead across tested concentrations” value in [8] was 100%. For the same molecule, in [9], the BMC mortality turned out to be 6.44 µM. The “max % larvae unhatched across tested concentrations” value in assay [4] was 0%. This molecule also gave a max % larvae in [5] of 100%.

In the case of `FC(F)(F)C(F)(F)C(F)(F)C(F)(F)C(F)(F)C(F)(F)C(F)(F)C(F)(F)CCS` [2-(Perfluorooctyl)ethanthiol], in assay [10], the “max % larvae unhatched across tested concentrations” value is 0%. The “max % larvae dead across tested concentrations” value in assay [11] was 0%. This molecule gave a max % larvae in [12] of 10.4%.

As for `C=C(C)C(=O)OCC(F)(F)C(F)(F)C(F)(F)C(F)(F)C(F)(F)C(F)(F)C(F)(F)F` [(Perfluoroheptyl)methyl methacrylate], the “max % larvae unhatched across tested concentrations” value in assay [10] came to 0%. Moreover, in assay [11], the “max % larvae dead across tested concentrations” value is 0%. The molecule further gave a max % larvae in assay [12] of 0%.

`COC(=O)C(F)(F)C(F)(F)OC(F)(C(F)(F)F)C(F)(F)OC(F)=C(F)F` (stereo not given) [Methyl perfluoro(3-(1-ethenyloxypropan-2-yloxy)propanoate)]: in assay [10], the “max % larvae unhatched across tested concentrations” value came to 0%. The “max % larvae dead across tested concentrations” value in [11] came to 0%. Moreover, the max % larvae in [12] turned out to be 8.33%.

As to `N=C(N)C(F)(F)C(F)(F)C(F)(F)C(F)(F)C(F)(F)C(F)(F)C(F)(F)F` [Perfluorooctanamidine], the BMC any abnormality in assay [1] worked out at 19.5 µM. In addition, the “max % larvae dead across tested concentrations” value in [8] was determined as 100%. In addition, the BMC mortality in assay [9] came to 19.5 µM. Further, the “max % larvae unhatched across tested concentrations” value in [4] is 0%. In assay [5], this molecule displayed a max % larvae of 100%.

Take `FC(F)(F)C(F)(C(F)(F)F)C(F)(F)C(F)(F)CC1CO1` (stereo not given) [3-(Perfluoro-3-methylbutyl)-1,2-propenoxide]: the “max % larvae unhatched across tested concentrations” value in [10] turned out to be 0%. Besides, the “max % larvae dead across tested concentrations” value in [11] stood at 0%. This molecule also displayed a max % larvae in assay [12] of 0%.

Regarding `OCCC(F)(F)C(F)(F)C(F)(F)C(F)(F)C(F)(F)C(F)(F)F` [2-(Perfluorohexyl)ethanol], the BMC any abnormality in assay [1] came to 10.4 µM. Further, the “max % larvae dead across tested concentrations” value in [8] was 8.33%. Besides, in assay [2] (setting [13]), the BMC edema was found to be 3.37 µM. Further, in assay [3] (setting [13]), the “BMC swim bladder non-inflation” value is 26.2 µM. The “max % larvae unhatched across tested concentrations” value in [4] is 0%. In addition, the max % larvae in assay [5] worked out at 89.6%. In assay [7] (setting [13]), this molecule gave a BMC craniofacial defects of 27.9 µM.

Values taken from the supplement of paper PMC11281043.
